# From patent publication US11873298B2, “Compounds and uses thereof” (JANSSEN PHARMACEUTICA NV, priority 2017, dated 2024)
# pIC50: −log10 of the molar value. Several values for one entry are separate records, joined by “and”; a condition that tells them apart may be missing. Identical values can stand only once.
# What was measured:
# Type in all cases: cell-based
# [1] = target: T1, Ole1 (Saccharomyces cerevisiae, UniProt P21147); test: Growth inhibition of yeast strain expressing Ole1 as sole desaturase; details: yeast strain expressing Ole1 as sole desaturase
# T1 construct: expressed in transfected cells; host or cells: S. cerevisiae ole1Δ strain (W303 pdr1Δ pdr3Δ background), plasmid pRS316 with TDH3 promoter and CYC1 terminator
# T1 sequence (P21147 1-510): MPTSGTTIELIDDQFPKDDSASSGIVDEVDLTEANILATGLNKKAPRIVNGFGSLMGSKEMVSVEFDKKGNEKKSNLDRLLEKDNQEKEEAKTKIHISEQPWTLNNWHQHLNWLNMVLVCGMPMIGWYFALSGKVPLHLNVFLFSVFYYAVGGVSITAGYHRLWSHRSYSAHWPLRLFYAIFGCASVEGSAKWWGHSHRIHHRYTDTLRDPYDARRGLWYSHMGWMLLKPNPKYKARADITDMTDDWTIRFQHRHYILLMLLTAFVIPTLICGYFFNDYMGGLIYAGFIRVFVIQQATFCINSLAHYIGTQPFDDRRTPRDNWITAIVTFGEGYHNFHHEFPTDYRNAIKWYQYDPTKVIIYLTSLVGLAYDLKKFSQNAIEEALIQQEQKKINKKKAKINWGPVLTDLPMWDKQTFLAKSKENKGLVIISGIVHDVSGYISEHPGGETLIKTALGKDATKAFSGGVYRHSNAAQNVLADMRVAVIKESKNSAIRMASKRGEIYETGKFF
# Procedure, shortened: (§1)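 Yeast ole1Δ strain (W303 pdr1Δ pdr3Δ background) carrying plasmid-borne Ole1, SCD1 or SCD5 as sole desaturase was grown in uracil-lacking media, pre-cultured in raffinose for 6 h, then seeded in galactose medium with compound in DMSO. Growth was read as OD600 after 30° C. incubation: 24 h for Ole1, 40 h for SCD1/SCD5.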
# [2] = target: T2, SCD1 (Homo sapiens, UniProt O00767); test: Growth inhibition of humanized yeast strain expressing SCD1 as sole desaturase; details: humanized yeast strain expressing SCD1
# T2 construct: host or cells: S. cerevisiae ole1Δ strain (W303 pdr1Δ pdr3Δ background), plasmid pRS316 with TDH3 promoter and CYC1 terminator
# T2 sequence (O00767 1-359): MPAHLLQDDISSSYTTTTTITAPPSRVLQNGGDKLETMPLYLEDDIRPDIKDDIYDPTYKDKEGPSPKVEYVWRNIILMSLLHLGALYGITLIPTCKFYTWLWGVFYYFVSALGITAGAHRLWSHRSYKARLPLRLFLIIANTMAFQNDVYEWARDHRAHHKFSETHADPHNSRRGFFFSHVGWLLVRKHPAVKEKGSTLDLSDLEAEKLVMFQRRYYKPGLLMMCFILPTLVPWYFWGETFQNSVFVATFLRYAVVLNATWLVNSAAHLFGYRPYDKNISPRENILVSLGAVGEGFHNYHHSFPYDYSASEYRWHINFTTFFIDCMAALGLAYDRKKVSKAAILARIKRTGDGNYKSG
# Procedure, shortened: as §1
# [3] = target: T3, SCD5 (Homo sapiens, UniProt Q86SK9); test: Growth inhibition of humanized yeast strain expressing SCD5 as sole desaturase; details: humanized yeast strain expressing SCD5
# T3 construct: host or cells: S. cerevisiae ole1Δ strain (W303 pdr1Δ pdr3Δ background), plasmid pRS316 with TDH3 promoter and CYC1 terminator
# T3 sequence (Q86SK9 1-330): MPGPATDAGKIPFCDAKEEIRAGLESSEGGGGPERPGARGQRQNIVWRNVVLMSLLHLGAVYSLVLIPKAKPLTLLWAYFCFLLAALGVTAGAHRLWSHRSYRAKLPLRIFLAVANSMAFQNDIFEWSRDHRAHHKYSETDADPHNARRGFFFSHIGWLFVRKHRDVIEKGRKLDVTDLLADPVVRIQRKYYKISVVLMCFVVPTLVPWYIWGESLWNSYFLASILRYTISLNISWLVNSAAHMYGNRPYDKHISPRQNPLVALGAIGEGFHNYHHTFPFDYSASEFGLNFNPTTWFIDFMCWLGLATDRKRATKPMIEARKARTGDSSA
# Procedure, shortened: as §1
SMILES,pIC50 [1],OLE1 % Max Inhibition [1],SCD1 % Max Inhibition [2],pIC50 [3],SCD5 % Max Inhibition [3],pIC50 [2]
CNC(=O)c1ccc(-c2noc(C3CCN(C(=O)[C@H]4CC(=O)N(c5ccccc5)C4)CC3)n2)cn1 [Compound 252],< 4.35,27.85%,80.73%,< 4.35,39.69%,–
CCN1C(=O)COc2ccc(-c3noc(C4(c5ccc(OC)cc5)CC4)n3)cc21 [Compound 491],< 4.35,107.15%,118.81%,< 4.35,83.61%,–
COC(=O)N1CCC(c2nc(-c3ccc4c(C)nn(C)c4c3)no2)CC1 [Compound 273],< 4.35,78.7%,67.9%,< 4.35,55.0%,–
CCOc1ccc(-c2noc(N3CCC(C(=O)N4CCO[C@@H](c5ccccc5)C4)CC3)n2)cc1OC [Compound 217],< 4.35,10.39%,57.90%,< 4.35,12.62%,4.43
CC(C)c1ccc(C(=O)N2CCC(c3nc(C(=O)Nc4ccnn4C)no3)CC2)cc1 [Compound 287],< 4.35,93.89%,72.51%,< 4.35,66.81%,–
CC1(C)CC(=O)c2c(O)cc(OCC(=O)NCCc3nc(-c4ccccc4)no3)cc2O1 [Compound 487],< 4.35,103.20%,83.76%,4.40,70.73%,–
Cc1nn(C)c2cc(-c3noc(C4CCN(C(=O)C5CC(=O)N(c6ccccc6C#N)C5)CC4)n3)ccc12 (centres unmarked) [Compound 170],4.39,67.97%,103.19%,< 4.35,85.13%,< 4.35
CC(C)n1ncc2ccc(-c3noc(C4CCN(C(=O)C5CC(=O)N(c6ccccc6)C5)CC4)n3)cc21 (centres unmarked) [Compound 174],< 4.35,89.17%,79.07%,< 4.35,10.95%,< 4.35
Cc1nn(C)c2cc(-c3noc(C4CCN(C(=O)[C@H]5CCN(C(=O)c6ccccc6)C5)CC4)n3)ccc12 [Compound 239],< 4.35,29.21%,75.58%,< 4.35,6.02%,< 4.35
CCOc1cnc(-c2noc(C3CCN(C(=O)CNC(=O)c4ccccc4)CC3)n2)nc1OC [Compound 166],< 4.35,105.73%,90.07%,< 4.35,68.87%,< 4.35
Cc1nn(C)c2cc(-c3nsc(C4CCN(C(=O)C5CC(=O)N(c6ccccc6)C5)CC4)n3)ccc12 (centres unmarked) [Compound 251],< 4.35,7.80%,83.15%,< 4.35,20.59%,< 4.35
Cc1nn(C)c2cc(-c3noc(C4CCN(C(=O)CNC(=O)c5ccccc5)C4)n3)ccc12 (centres unmarked) [Compound 209],< 4.35,3.74%,101.51%,< 4.35,78.88%,< 4.35
Cc1nn(C)c2cc(-c3noc(C4CCN(C(=O)c5cc(F)ccc5C(F)(F)F)CC4)n3)ccc12 [Compound 292],< 4.35,13.6%,9.5%,< 4.35,10.2%,–
Cc1nn(C)c2cc(-c3noc(C4CCN(C(=O)c5ccccc5)CC4)n3)ccc12 [Compound 280],< 4.35,17.18%,11.48%,< 4.35,8.86%,–
CC(C)c1ccc(C(=O)N2CCC(c3nc(-c4ccc5cnn(C)c5c4)no3)CC2)cc1 [Compound 204],< 4.35,79.30% and 50.38%,30.36% and 21.99%,< 4.35,0.25% and 2.95%,< 4.35
Cc1nn(C)c2cc(-c3noc(C4CCN(C(=O)CN5Cc6ccccc6C5=O)CC4)n3)ccc12 [Compound 165],< 4.35,2.01%,94.44%,< 4.35,80.23%,< 4.35
CC(C)n1ncc2ccc(-c3noc(C4CCN(C(=O)CNC(=O)c5ccccc5)CC4)n3)cc21 [Compound 171],< 4.35,6.77%,74.21%,< 4.35,−0.14%,4.39
Cc1cc(N2CC(C(=O)N3CCC(c4nc(-c5ccc6c(C)nn(C)c6c5)no4)CC3)CC2=O)ccn1 (centres unmarked) [Compound 183],< 4.35,101.71%,101.67%,< 4.35,84.88%,< 4.35
CCn1nc2cc(-c3noc(C4CCN(C(=O)OC(C)(C)C)CC4)n3)ccc2c1C [Compound 342],< 4.35,80.9%,75.9%,< 4.35,43.5%,< 4.35
Cc1nn(C)c2cc(-c3nsc(C4CCN(C(=O)OC(C)(C)C)CC4)n3)ccc12 [Compound 300],< 4.35,79.7%,78.1%,< 4.35,36.0%,–
Cc1nn(C2CC2)c2cc(-c3noc(C4CCN(C(=O)CNC(=O)c5ccccc5)CC4)n3)ccc12 [Compound 286],< 4.35,5.18% and 4.35%,13.04% and 14.44%,< 4.35,8.76% and 9.55%,–
Cc1nn(C)c2cc(-c3noc(N4CCN(C(=O)c5ccccc5Cl)CC4)n3)ccc12 [Compound 262],< 4.35,23.99%,41.84%,< 4.35,10.38%,–
CCN(Cc1nc(-c2ccc(OC)c(OC)c2)no1)C(=O)Cc1cccc2ccccc12 [Compound 157],< 4.35,91.55%,80.54%,< 4.35,72.54%,< 4.35
O=C(C1CC(=O)N(c2cccc(Cl)c2)C1)N1CCC(c2nc(-c3cnn(C4COC4)c3)no2)CC1 (centres unmarked) [Compound 340],< 4.35,88.9%,55.0%,< 4.35,65.9%,< 4.35
O=C(C1CCN(c2nc(-c3ccccc3)no2)CC1)N1CCOCC1 [Compound 5],< 4.35,–,–,4.61,–,< 4.35
CC(C)(CO)n1ncc2ccc(-c3noc(C4CCN(C(=O)C5CC(=O)N(c6ccccc6)C5)CC4)n3)cc21 (centres unmarked) [Compound 203],< 4.35,100.03%,84.83%,< 4.35,80.12%,< 4.35
O=C(CN1Cc2ccccc2C1=O)N1CCC(c2nc(-c3ccc4c(c3)COC4)no2)CC1 [Compound 223],< 4.35,2.22%,68.23%,4.39,67.37%,4.39
